Data on 22 compounds can be found in PubChem BioAssay AID256 (DTP/NCI, 2004).

Molecules are shown by their SMILES. Several values for one entry are separate records, joined by “and”; a condition that tells them apart may be missing. Equal values may be shown once. Inconclusive results and toxic doses are left out.

In the assay the test system is CD2F1 mice, L1210 leukemia ip, survival T/C. The assay is described as follows: NCI In Vivo Anticancer Drug Screen. Data for tumor model L1210 Leukemia (intraperitoneal) in CD2F1 (CDF1) mice. As to conditions: higher = longer survival. In outline: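 Implant tumor; dose compound or vehicle; measure endpoint in both groups; report treated divided by control.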
The mark [1] stands for this setting: endpoint: mean survival time, dose: 100.0 mg/kg/injection, schedule: Q04DX003 (ip), vehicle: Klucel (hydroxypropylcellulose) (HPC).
Setting [2] is: endpoint: mean survival time, dose: 200.0 mg/kg/injection, schedule: Q04DX003 (ip), vehicle: Klucel (hydroxypropylcellulose) (HPC).
Where [3] appears, read: endpoint: mean survival time, dose: 100.0 mg/kg/injection, schedule: Q04DX003 (ip), vehicle: saline with Tween-80.
[4] abbreviates: endpoint: mean survival time, dose: 200.0 mg/kg/injection, schedule: Q04DX003 (ip), vehicle: saline with Tween-80.
Where [5] appears, read: endpoint: mean survival time, dose: 400.0 mg/kg/injection, schedule: Q04DX003 (ip), vehicle: saline with Tween-80.
Setting [6] is: endpoint: mean survival time, dose: 50.0 mg/kg/injection, schedule: Q04DX003 (ip), vehicle: saline.
Setting [7] is: endpoint: mean survival time, dose: 100.0 mg/kg/injection, schedule: Q04DX003 (ip), vehicle: saline.
Setting [8] is: endpoint: mean survival time, dose: 100.0 mg/kg/injection, schedule: Q01DX001 (ip), vehicle: saline.
[9] abbreviates: endpoint: mean survival time, dose: 200.0 mg/kg/injection, schedule: Q01DX001 (ip), vehicle: saline.
The mark [10] stands for this setting: endpoint: mean survival time, dose: 400.0 mg/kg/injection, schedule: Q01DX001 (ip), vehicle: saline.
The mark [11] stands for this setting: endpoint: mean survival time, dose: 12.5 mg/kg/injection, schedule: Q01DX009 (ip), vehicle: saline with Tween-80.
Where [12] appears, read: endpoint: mean survival time, dose: 25.0 mg/kg/injection, schedule: Q01DX009 (ip), vehicle: saline with Tween-80.
[13] abbreviates: endpoint: mean survival time, dose: 50.0 mg/kg/injection, schedule: Q01DX009 (ip), vehicle: saline with Tween-80.
Where [14] appears, read: endpoint: mean survival time, dose: 50.0 mg/kg/injection, schedule: Q01DX009 (ip), vehicle: saline.
Where [15] appears, read: endpoint: mean survival time, dose: 100.0 mg/kg/injection, schedule: Q01DX009 (ip), vehicle: saline with Tween-80.
The mark [16] stands for this setting: endpoint: mean survival time, dose: 200.0 mg/kg/injection, schedule: Q01DX009 (ip), vehicle: saline with Tween-80.
The mark [17] stands for this setting: endpoint: mean survival time, dose: 200.0 mg/kg/injection, schedule: Q04DX003 (ip), vehicle: saline.
Setting [18] is: endpoint: mean survival time, dose: 400.0 mg/kg/injection, schedule: Q04DX003 (ip), vehicle: saline.

As for `CCCCOC(=O)c1ccccc1Cl`, the T/C was 94 % of control (endpoint: mean survival time, dose: 50.0 mg/kg/injection, schedule: Q04DX003 (ip), vehicle: Klucel (hydroxypropylcellulose) (HPC)); 100 % of control under setting [1]; 102 % of control under setting [2].

Take `CCN1/C(=C/C=C/C=C\C=C\c2sc3ccc4ccccc4c3[n+]2CC)Sc2ccc3ccccc3c21`: the T/C (endpoint: mean survival time, dose: 1.25 mg/kg/injection, schedule: Q01DX009 (ip), vehicle: saline with Tween-80) is 116 % of control and 117 % of control and 112 % of control; the T/C (endpoint: mean survival time, dose: 2.5 mg/kg/injection, schedule: Q01DX009 (ip), vehicle: saline with Tween-80) is 116 % of control and 119 % of control and 120 % of control; the T/C (endpoint: mean survival time, dose: 5.0 mg/kg/injection, schedule: Q01DX009 (ip), vehicle: saline with Tween-80) was 114 % of control; the T/C (endpoint: mean survival time, dose: 10.0 mg/kg/injection, schedule: Q01DX009 (ip), vehicle: saline with Tween-80) was 117 % of control and 118 % of control; the T/C (endpoint: mean survival time, dose: 20.0 mg/kg/injection, schedule: Q01DX009 (ip), vehicle: saline with Tween-80) is 114 % of control and 116 % of control; the T/C (endpoint: mean survival time, dose: 40.0 mg/kg/injection, schedule: Q01DX009 (ip), vehicle: saline with Tween-80) was 101 % of control and 112 % of control.

For `Cc1ccc(NC(=O)COc2ccc(Cl)cc2Cl)cc1Cl`, the T/C was 93 % of control under setting [3], 98 % of control under setting [4] and 88 % of control under setting [5].

Consider `O=C(NCc1ccccc1)C1C2CC3OC(=O)C1C3C2` (stereo not given), for which the T/C is 112 % of control (endpoint: mean survival time, dose: 12.5 mg/kg/injection, schedule: Q04DX003 (ip), vehicle: saline with Tween-80); 106 % of control (endpoint: mean survival time, dose: 12.5 mg/kg/injection, schedule: Q04DX003 (ip), vehicle: saline); 114 % of control (endpoint: mean survival time, dose: 25.0 mg/kg/injection, schedule: Q04DX003 (ip), vehicle: saline with Tween-80); 108 % of control (endpoint: mean survival time, dose: 25.0 mg/kg/injection, schedule: Q04DX003 (ip), vehicle: saline); 114 % of control (endpoint: mean survival time, dose: 50.0 mg/kg/injection, schedule: Q04DX003 (ip), vehicle: saline with Tween-80); 110 % of control under setting [6]. Besides, the T/C runs as follows: under setting [3], 114 % of control; under setting [7], 108 % of control.

`O=C(Oc1ccn(C2OC(CO)C(O)C2O)c(=O)c1)C12CC3CC(CC(C3)C1)C2` (stereo not given): the T/C reads like this: (endpoint: median survival time, dose: 20.0 mg/kg/injection, schedule: Q01DX009 (ip), vehicle: saline + Tween-80 + alcohol) 153 % of control; (endpoint: median survival time, dose: 30.0 mg/kg/injection, schedule: Q01DX009 (ip), vehicle: saline + Tween-80 + alcohol) 170 % of control; (endpoint: median survival time, dose: 45.0 mg/kg/injection, schedule: Q01DX009 (ip), vehicle: saline + Tween-80 + alcohol) 158 % of control.

As for `CC(=O)NCC(C)C`, the T/C is, setting by setting: under setting [8], 98 % of control; under setting [9], 97 % of control; under setting [10], 104 % of control.

Take `Cc1nc(C#N)c(N)nc1Cl`: the T/C is 109 % of control (endpoint: mean survival time, dose: 100.0 mg/kg/injection, schedule: Q04DX002 (ip), vehicle: Klucel (hydroxypropylcellulose) (HPC)); 91 % of control (endpoint: mean survival time, dose: 200.0 mg/kg/injection, schedule: Q04DX002 (ip), vehicle: Klucel (hydroxypropylcellulose) (HPC)); 109 % of control (endpoint: mean survival time, dose: 400.0 mg/kg/injection, schedule: Q04DX002 (ip), vehicle: Klucel (hydroxypropylcellulose) (HPC)).

On to `C[N+]1(C)CCS(=O)(=O)CC1`, for which the T/C is 94 % of control under setting [3], 95 % of control under setting [4] and 86 % of control under setting [5].

Turning to `CCOC(=O)c1c2c3c(c(Br)ccc3n(C)c1=O)C(=O)c1ccccc1-2`, the T/C runs as follows: under setting [11], 98 % of control; under setting [12], 96 % of control; under setting [13], 98 % of control.

For `CC(C)[N-]C(C)C.CC(C)[N-]C(C)C.[Cl][Pt+2][Cl]`, the T/C by setting is: (endpoint: mean survival time, dose: 10.0 mg/kg/injection, schedule: Q04DX003 (ip), vehicle: saline with Tween-80) 102 % of control; (endpoint: mean survival time, dose: 20.0 mg/kg/injection, schedule: Q04DX003 (ip), vehicle: saline with Tween-80) 97 % of control; (endpoint: mean survival time, dose: 40.0 mg/kg/injection, schedule: Q04DX003 (ip), vehicle: saline with Tween-80) 105 % of control; (endpoint: mean survival time, dose: 80.0 mg/kg/injection, schedule: Q04DX003 (ip), vehicle: saline with Tween-80) 97 % of control; (endpoint: mean survival time, dose: 160.0 mg/kg/injection, schedule: Q04DX003 (ip), vehicle: saline with Tween-80) 97 % of control.

On to `OCC(CO)(CO)CO`, for which the T/C by setting is: (endpoint: mean survival time, dose: 50.0 mg/kg/injection, schedule: Q01DX009 (ip), vehicle: Klucel (hydroxypropylcellulose) (HPC)) 93 % of control; (endpoint: mean survival time, dose: 100.0 mg/kg/injection, schedule: Q01DX009 (ip), vehicle: Klucel (hydroxypropylcellulose) (HPC)) 93 % of control; (endpoint: mean survival time, dose: 200.0 mg/kg/injection, schedule: Q01DX009 (ip), vehicle: Klucel (hydroxypropylcellulose) (HPC)) 96 % of control.

As for `Nc1ccccc1C1=Nc2cncnc2NC1`, the T/C is 104 % of control (endpoint: mean survival time, dose: 75.0 mg/kg/injection, schedule: Q01DX001 (ip), vehicle: saline); 102 % of control (endpoint: mean survival time, dose: 150.0 mg/kg/injection, schedule: Q01DX001 (ip), vehicle: saline); 93 % of control (endpoint: mean survival time, dose: 300.0 mg/kg/injection, schedule: Q01DX001 (ip), vehicle: saline).

As to `COC(=O)c1ccc(C=O)cc1`, the T/C was 87 % of control under setting [1]; 102 % of control under setting [2]; 94 % of control (endpoint: mean survival time, dose: 400.0 mg/kg/injection, schedule: Q04DX003 (ip), vehicle: Klucel (hydroxypropylcellulose) (HPC)).

Consider `CC[N+]1(CC)N=C([O-])N(C)C1=O`, for which the T/C is 103 % of control under setting [8], 101 % of control under setting [9] and 97 % of control under setting [10].

With `CC(C)(SC(c1ccccc1)(c1ccccc1)c1ccccc1)C(N)C(=O)O` (stereo not given), the T/C reads like this: (endpoint: mean survival time, dose: 25.0 mg/kg/injection, schedule: Q01DX009 (ip), vehicle: saline) 106 % of control; under setting [14], 103 % of control.

Regarding `O=C1CCCCC1C1(O)C(=O)Nc2ccccc21` (stereo not given), the T/C is 91 % of control under setting [13], 95 % of control under setting [15] and 87 % of control under setting [16].

Regarding `CC(C)P(=O)(CC(=O)O)c1ccccc1` (stereo not given), the T/C reads like this: (endpoint: mean survival time, dose: 25.0 mg/kg/injection, schedule: Q04DX002 (ip), vehicle: saline with Tween-80) 107 % of control; (endpoint: mean survival time, dose: 50.0 mg/kg/injection, schedule: Q04DX002 (ip), vehicle: saline with Tween-80) 96 % of control; (endpoint: mean survival time, dose: 100.0 mg/kg/injection, schedule: Q04DX002 (ip), vehicle: saline with Tween-80) 100 % of control.

In the case of `Cc1cc(C)[nH]c(=O)n1`, the T/C runs as follows: under setting [7], 94 % of control; under setting [17], 102 % of control; under setting [18], 94 % of control.

For `O=[N+]([O-])c1ccc(-n2[nH]nnc2=S)cc1`, the T/C by setting is: under setting [11], 95 % of control; under setting [12], 93 % of control; under setting [13], 102 % of control; (endpoint: mean survival time, dose: 100.0 mg/kg/injection, schedule: Q01DX009 (ip), vehicle: acetone) 95 % of control; under setting [15], 96 % of control; (endpoint: mean survival time, dose: 200.0 mg/kg/injection, schedule: Q01DX009 (ip), vehicle: acetone) 94 % of control. Moreover, the T/C is, setting by setting: under setting [16], 96 % of control; (endpoint: mean survival time, dose: 400.0 mg/kg/injection, schedule: Q01DX009 (ip), vehicle: saline with Tween-80) 93 % of control.

On to `Cc1c2ccncc2c(C)c2c1[nH]c1ccc(Br)cc12`, for which the T/C runs as follows: under setting [6], 101 % of control; under setting [7], 101 % of control; under setting [17], 103 % of control; under setting [18], 103 % of control.

Consider `FC(F)(F)c1nc2nccnc2[nH]1`, for which the T/C by setting is: under setting [14], 95 % of control; (endpoint: mean survival time, dose: 100.0 mg/kg/injection, schedule: Q01DX009 (ip), vehicle: saline) 91 % of control; (endpoint: mean survival time, dose: 200.0 mg/kg/injection, schedule: Q01DX009 (ip), vehicle: saline) 93 % of control.

Turning to `CS(=O)(=O)OCC(=O)NCCCCNC(=O)COS(C)(=O)=O`, the T/C by setting is: under setting [8], 101 % of control; under setting [9], 101 % of control.
